Legend:
[1] = system: CD14/CD16+ blood macrophages from normal (uninfected) patients; assay: Susceptibility assay: killing of CD14/CD16+ blood macrophages from normal patients; type: cell-based, human; settings: FIG. 4, ex vivo
Method: The following procedures/protocols were used in some of the examples that follow. All steps were performed in a biological safety cabinet using Universal Precautions for handling human blood samples and standard aseptic techniques.
The PBMC for the susceptibility assays was prepared in accordance with the following procedures. A cell culture medium was prepared by mixing RPMI+10% FBS+1% sodium pyruvate and filter sterilized using a filter unit with 0.22 micron pore size. The cell pellet was then resuspended in 3 ml of the cell culture medium. The suspension was gently mixed by slowly pipetting up and down 3 times. The cells were counted using a hemacytometer and the cell density was adjusted to 1×10^6 cells/mL in the cell culture medium, followed by mixing by slowly pipetting up and down 3 times. The cells were incubated in a 50 mL sterile polypropylene tube, at 37° C. and 5% CO2 for 1-2 days. […]
Fluorescence emission measurements were obtained with a flow cytometer, using the following instrument settings in BD FACSCAN: 1) Detector: FL1=533 amps; FL2=570 amps; and FL3=550 amps; 2) Threshold=FSC 180; 3) Compensation: FL1 10.5% FL2; FL2 26.1% FL1; FL2 8.3% FL3; FL3 25.4% FL2; 4) Count=50,000 UNgated events.
The ability of polyamine analogs MGBG and CG47 to kill CD14/CD16+ blood macrophages in HIV infected and normal patients was measured. […]

HIV proviral DNA = assay: HIV proviral load after exposure of mononuclear cells in culture (Example 7); type: cell-based
Method: Mononuclear cells from HIV infected individuals were isolated and exposed to PA-001 in culture under non-adherent conditions for five days. The cells were then separated into CD3+ and CD14+ fractions via antibody-coated magnetic beads using a Miltenyi apparatus. The “-/-” samples represent flow thru after CD3+ and CD14+ cells were removed. Genomic DNA was prepared and then amplified with HIV specific primers and primers homologous to the single copy gene cJun. Results with HIV specific primers were normalized to those obtained with cJun. The number of HIV DNA copies per cellular DNA equivalent after exposure of mononuclear cell cultures from HIV infected individuals to PA-001 under non-adherent conditions for five days is shown in FIG. 7. Results with HIV specific primers were normalized to those obtained with cJun. Each bar represents the mean of three separate determinations. The error bar indicates one standard deviation from the mean. The numbers under the sample designations indicate the % of CD16+ monocytes killed by PA-001. ND=not done.

SIVmac251 = assay: SIVmac251-infected, CD8-depleted animals, 250 mg/m^2 on alternate weeks; type: in vivo, rhesus macaque
Method: These experiments once again used SIVmac251-infected, CD8-depleted animals, and again treatment was initiated at five days p.i. For this experiment, however, 250 mg/m^2 PA-001 (MGBG) was used and the animals were treated on alternate weeks, as is done in humans. Two animals were SIVmac251-infected, CD8-depleted, and PA-001 treated, and two were not drug treated, SIVmac251-infected, CD8-depleted controls. As of the time this study was conducted, the treated animals had received four doses of PA-001 and lived past day 55. In contrast, the non-treated animals developed AIDS and SIV encephalitis (SIVE) and in fact, one of the CD8-depleted, non-treated animals had died of AIDS and SIVE and the second non PA-001 treated animal was scheduled for sacrifice due to AIDS.
SIV-infected, CD8-depleted animals without PA-001 treatment (EJ02 and EL95) had higher counts of total monocytes (top) and the CD14+CD16+ subset (bottom). In fact, one of the untreated animals (EJ02) died of AIDS and SIVE at day 55 p.i.

Structure (SMILES) | sensitivity of CD14/CD16+ macrophages from the normal patient [1] | HIV proviral load in cells that neither bound to CD14 or CD3 antibodies (HIV proviral DNA; FIG. 7B) | yield of HIV DNA in T cells (HIV proviral DNA; five days, CD3+ fraction) | HIV proviral load in CD14+ cells (HIV proviral DNA; five days, non-adherent conditions) | CD14+ and CD16+ monocyte populations (SIVmac251; detailed flow cytometry) | survival of treated animals (SIVmac251; four doses of 250 mg/m^2, alternate weeks) [days] | absolute numbers of total monocytes (SIVmac251; vs non-treated animals, FIG. 11)
CCNCCCNC/C=C\CNCCCNCC.Cl.Cl.Cl.Cl [CG47, N,N′-bis(3-ethylaminopropyl)-cis-but-2-ene-1,4-diamine tetrahydrochloride] | essentially unaffected |  |  |  |  |  | 
CC(/C=N/NC(=N)N)=N\NC(=N)N [MGBG] |  | effective in reducing | generally decreased slightly | significant decreases | significant decreases | > 55 | lower absolute numbers

From patent publication US7879914B2, “Methods for treating viral infections using polyamine analogs” (Pathlogica LLC, priority 2005, dated 2011)
